Article PMC11740726 (PNAS Nexus, 2025)
Read-outs that look alike come from different tables or passages of the source.

Legend:
TA100 = details: Salmonella typhimurium
WP2 uvrA = details: Escherichia coli
TA98 = details: Salmonella typhimurium
in vitro = details: African green monkey
SARS-CoV-2^WK-521 [1] = experiment: microbe, parasite or virus in culture; format: cell-based
TA1537 = details: Salmonella typhimurium
in vivo [2] = details: PXB (human liver-chimeric), mouse, po, 10 mg/kg
[3] = system: SARS-CoV-2^Omicron EG.5.1; experiment: microbe, parasite or virus in culture; format: cell-based; details: Severe acute respiratory syndrome coronavirus 2, read-out: anti-SARS-CoV-2^Omicron EG.5.1 activity EC50 in primary human nasal epithelial (HNEp) cells
SARS-CoV-2^BQ.1.1 = experiment: microbe, parasite or virus in culture; format: cell-based; details: Severe acute respiratory syndrome coronavirus 2, read-out: SARS-CoV-2^BQ.1.1 in HeLa^hACE2-TMPRSS2 cells EC50
[4] = system: SARS-CoV-2 Omicron XBB.1.5; experiment: microbe, parasite or virus in culture; format: cell-based; details: for EC50: Severe acute respiratory syndrome coronavirus 2, read-out: EC50 in the presence of 1 mg/mL human AAG
SARS-CoV-2^WK-521 [5] = experiment: microbe, parasite or virus in culture; format: cell-based; details: Severe acute respiratory syndrome coronavirus 2, read-out: EC50, SARS-CoV-2^WK-521, HeLa^hACE2-TMPRSS2
SARS-CoV-2 M^pro = SARS-CoV-2 M^pro (Severe acute respiratory syndrome coronavirus 2, UniProt P0DTD1); experiment: SARS-CoV-2 M^pro enzyme assay (cell-free, fluorogenic substrate); format: biochemical; details: authentic M^pro; mean ± 1 SD, three assays
in vivo [6] = details: ICR, mouse, po, 10 mg/kg
human cathepsin L = human cathepsin L (Homo sapiens, UniProt P07711); experiment: biochemical
[7] = system: four Salmonella typhimurium strains (TA100, TA1535, TA98, TA1537) and one Escherichia coli strain (WP2 uvrA)
SARS-CoV-2^XBB1.5 = system: SARS-CoV-2^XBB1.5; parameters: species or system B6.Cg-Tg(K18-hACE2)2-Prlmn/J-transgenic mice; details: mouse, in vivo
human calpain = format: biochemical
[8] = system: primary human nasal epithelial cells
[9] = Severe acute respiratory syndrome coronavirus 2, Vero C1008, read-out: EC50, SARS-CoV-2^WK-521, VeroE6 +2μM CP-100356
[10] = Severe acute respiratory syndrome coronavirus 2, Vero C1008, read-out: EC50, SARS-CoV-2^WK-521, VeroE6
[11] = Severe acute respiratory syndrome coronavirus 2, Vero C1008, read-out: SARS-CoV-2^WK-521 in VeroE6 cells EC50
[12] = read-out: EC50 against SARS-CoV-2^WK-521 in VeroE6 cells in the presence of CP100356

Chain of human cathepsin L (P07711 114-333): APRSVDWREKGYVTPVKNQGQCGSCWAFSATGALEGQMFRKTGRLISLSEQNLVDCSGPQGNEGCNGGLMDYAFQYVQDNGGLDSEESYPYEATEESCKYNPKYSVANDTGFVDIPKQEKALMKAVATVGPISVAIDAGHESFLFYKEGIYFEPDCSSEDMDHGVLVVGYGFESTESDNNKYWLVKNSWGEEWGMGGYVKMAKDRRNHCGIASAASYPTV

NC(=O)C(=Cc1ccc([N+](=O)[O-])o1)c1ccco1 [AF-2, 2-(2-Furyl)-3-(5-nitro-2-furyl)acrylamide]
Number of colonies / plate (positive control) (TA100): 29.0 ± 4. colonies / plate | Number of colonies / plate (positive control) (WP2 uvrA): 10.7± 3.1 colonies / plate | Number of colonies / plate (positive control) (TA98): 22.7 ± 3.1 colonies / plate

Nc1ccc2cc3ccccc3cc2c1 [Compound 2AA, 2-Aminoanthracene]
Number of colonies / plate (positive control) (TA1535; Salmonella typhimurium): 15.3 ± 1.2 colonies / plate | Number of colonies / plate (positive control) (WP2 uvrA): 49.0± 7.9 colonies / plate

Cn1cnc(Cn2c(=O)[nH]/c(=N\c3cc4cn(C)nc4cc3Cl)n(Cc3cc(F)c(F)cc3F)c2=O)n1 [Ensitrelvir, reference compound]
CC50 (in vitro): > 100000 nM | EC50 (SARS-CoV-2^WK-521 [1]; [9]): 30 nM

COc1ccc2nc3cc(Cl)ccc3c(NCCCNCCCl)c2c1 [ICR-191, 2-Methoxy-6-chloro-9-[3-(2-chloroethyl)-aminopropylamino] acridine·2HCl]
Number of colonies / plate (positive control) (TA1537): 37.3± 2.5 colonies / plate

[N-]=[N+]=[N-].[Na+] [NaN3, SodiumAzide]
Number of colonies / plate (positive control) (TA1535): 29.3 ± 9.1 colonies / plate

CC(C)(C)[C@H](NC(=O)C(F)(F)F)C(=O)N1C[C@H]2[C@@H]([C@H]1C(=O)N[C@H](C#N)C[C@@H]1CCNC1=O)C2(C)C [Nirmatrelvir, reference compound]
half-life (in vivo [2]): 1.43 h | CC50 (in vitro): > 100000 nM | EC50 [3]: 11100 nM | EC50 (SARS-CoV-2^BQ.1.1): 51 ± 16 nM | EC50 (SARS-CoV-2^WK-521 [1]; [10]): 1140 ± 190 nM | EC50 (SARS-CoV-2^WK-521 [1]; [9]): 20 ± 10 nM | EC50 (SARS-CoV-2^WK-521 [1]; [11]): 770 ± 180 nM | EC50 (SARS-CoV-2^WK-521 [1]; [12]): 36.3 nM | effect of 5 mg/mL human AAG on antiviral activity [4]: further reduced the activity | EC50 [4]: 160 nM | EC50 (SARS-CoV-2^WK-521 [5]): 20 nM

CC(C)(C)[C@H](NC(=O)C(F)(F)F)C(=O)N1C[C@H]2[C@@H]([C@H]1C(=O)N[C@@H](C[C@@H]1CCNC1=O)C(=O)c1nc3c(F)cccc3s1)C2(C)C [TKB245]
CC50 (in vitro): > 100000 nM | EC50 (SARS-CoV-2^WK-521 [1]; [11]): 20 ± 7 nM | EC50 (SARS-CoV-2^WK-521 [1]; [12]): 3.5 nM | intracellular concentrations in VeroE6 cells (VeroE6 cells): higher than those of nirmatrelvir

CC(C)(C)[C@H](NC(=O)C(F)(F)F)C(=O)N1C[C@H]2[C@@H]([C@H]1C(=O)N[C@@H](C[C@@H]1CCNC1=O)C(=O)c1nc3cccc(F)c3s1)C2(C)C [TKB252]
CC50 at 3 days (in vitro): > 100000 nM | IC50 (SARS-CoV-2 M^pro): 200 ± 50 nM | EC50 (SARS-CoV-2^BQ.1.1): 57 ± 23 nM | EC50 (SARS-CoV-2^WK-521 [1]; [11]): 62 ± 26 nM

CC(C)(C)[C@H](NC(=O)C(F)(F)F)C(=O)N1C[C@H]2[C@@H]([C@H]1C(=O)N[C@@H](C[C@@H]1CCNC1=O)C(=O)c1nc3cc(F)ccc3s1)C2(C)C [TKB272]
half-life (in vivo [6]): 3.37 h | half-life (in vivo [2]): 3.12 h | CC50 (in vitro): 98000 ± 2100 nM | EC50 [3]: 31 nM | EC50 (SARS-CoV-2^BQ.1.1): 2.6 ± 1 nM | intracellular concentrations in HeLa^hACE2-TMPRSS2 cells (HeLa^hACE2-TMPRSS2 cells): greater than those of nirmatrelvir | EC50 (SARS-CoV-2^WK-521 [1]; [10]): 15.8 ± 8.9 nM | EC50 (SARS-CoV-2^WK-521 [1]; [9]): 1 ± 1 nM | EC50 (SARS-CoV-2^WK-521 [1]; [11]): 7 ± 1 nM | EC50 (SARS-CoV-2^WK-521 [1]; [12]): 0.4 nM | effect of 5 mg/mL human AAG on antiviral activity [4]: further reduced the activity | EC50 [4]: 30 nM | EC50 (SARS-CoV-2^WK-521 [5]): 2.9 nM | IC50 (human cathepsin L): > 16000 nM | inhibition of human cathepsin L (target specificity) (human cathepsin L): none of the human cysteine enzymes, cathepsin L or calpain, were appreciably inhibited | genotoxicity in the micro-Ames test [7]: no apparent genotoxicity | growth inhibition of bacterial strains in µAmes test [7]: did not inhibit the growth of bacterial strains employed | increase of revertant colonies compared with negative control in µAmes test [7]: did not increase the number of revertant colonies more than twice | Lungs Virus titer (SARS-CoV-2^XBB1.5): 5.1 Log10(PFU/g) | Nasal turbinates Virus titer (SARS-CoV-2^XBB1.5): 3.2 Log10(PFU/g) | intracellular concentrations in VeroE6 cells (VeroE6 cells): higher than those of nirmatrelvir | IC50 (human calpain): > 2000 nM | inhibition of human calpain (target specificity) (human calpain): none of the human cysteine enzymes, cathepsin L or calpain, were appreciably inhibited | intracellular concentrations in human primary nasal epithelial cells [8]: comparable to nirmatrelvir

CC(C)(C)[C@H](NC(=O)C(F)(F)F)C(=O)N1C[C@H]2[C@@H]([C@H]1C(=O)N[C@@H](C[C@@H]1CCNC1=O)C(=O)c1nc3ccc(F)cc3s1)C2(C)C [TKB273]
CC50 at 3 days (in vitro): > 100000 nM | IC50 (SARS-CoV-2 M^pro): 8.9 ± 4.1 nM | EC50 (SARS-CoV-2^BQ.1.1): 114 ± 93 nM | EC50 (SARS-CoV-2^WK-521 [1]; [11]): 43 ± 24 nM

CC(C)C(=O)OC[C@H]1O[C@@H](n2ccc(NO)nc2=O)[C@H](O)[C@@H]1O [molnupiravir, reference compound]
EC50 (SARS-CoV-2^WK-521 [1]; [9]): 840 nM

Nirmatrelvir + Ritonavir
Lungs Virus titer (SARS-CoV-2^XBB1.5): 5.2 Log10(PFU/g) | Nasal turbinates Virus titer (SARS-CoV-2^XBB1.5): 2.4 Log10(PFU/g)
